Data: ChEMBL document CHEMBL5370592, “Synthesis and Structure-Activity Relationships of a New Class of Oxadiazoles Targeting DprE1 as Antitubercular Agents” (ACS Med Chem Lett, 2023)
Values after ≈ are worked out from the molar mass of the structure shown. Active and inactive are the calls of the source. The calls are words filed in the database; no cut-off is given here.

What was measured:
[1] = test system: Mycobacterium tuberculosis; experiment: Antitubercular activity against Mycobacterium tuberculosis H37Rv ATCC 27294 assessed as inhibition of bacterial growth cultured in Middlebrook 7H9/BSA/Tyloxapol with glucose medium for 2 weeks; format: functional; conditions: H37Rv ATCC 27294, 336 h
[2] = test system: Mycobacterium tuberculosis; experiment: Antitubercular activity against Mycobacterium tuberculosis H37Rv ATCC 27294 assessed as inhibition of bacterial growth cultured in Middlebrook 7H9/glucose/casitone/tyloxapol medium for 2 weeks; format: functional; conditions: H37Rv ATCC 27294, 336 h
[3] = Cytotoxicity against human HepG2 cells assessed as reduction in cell viability incubated for 24 hrs in DMEM/10% FBS supplemented with glucose by CellTiter-Glo luminescent assay; format: toxicity, cell-based
[4] = Cytotoxicity against human HepG2 cells assessed as reduction in cell viability incubated for 24 hrs in DMEM/10% FBS supplemented with galactose by CellTiter-Glo luminescent assay; format: toxicity, cell-based
[5] = test system: Mycobacterium tuberculosis; experiment: Antitubercular activity against Mycobacterium tuberculosis H37Rv ATCC 27294 assessed as inhibition of bacterial growth cultured in Middlebrook 7H9/ADC/Tween 80 with cydC::aph medium for 2 weeks; format: functional; conditions: H37Rv ATCC 27294, 336 h
[6] = test system: Mycobacterium tuberculosis; experiment: Antitubercular activity against Mycobacterium tuberculosis H37RV ATCC 27294 assessed as inhibition of bacterial growth cultured in Middlebrook 7H9/cholesterol/BSA/Tyloxapol medium for 2 weeks; format: functional; conditions: H37Rv ATCC 27294, 336 h
[7] = test system: Mycobacterium tuberculosis; experiment: Antitubercular activity against Mycobacterium tuberculosis H37Rv ATCC 27294 assessed as inhibition of bacterial growth cultured in Middlebrook 7H9/DPPC/cholesterol/BSA/Tyloxapol medium for 2 weeks; format: functional; conditions: H37Rv ATCC 27294, 336 h
[8] = test system: Mycobacterium tuberculosis; experiment: Antitubercular activity against Mycobacterium tuberculosis H37Rv ATCC 27294 assessed as inhibition of bacterial growth cultured in Middlebrook 7H9/ADC/Tween 80 medium for 2 weeks; format: functional; conditions: H37Rv ATCC 27294, 336 h
[9] = test system: Mycobacterium tuberculosis; experiment: Induction of DNA damage in Mycobacterium tuberculosis H37Rv transfected with PrecA-LUX reporter assessed as induction of recA reporter gene expression incubated for 12 days by bioluminescence analysis; format: functional, organism-based; conditions: time 12.0 day
[10] = test system: Mycobacterium tuberculosis; experiment: Induction of DNA damage in Mycobacterium tuberculosis H37Rv transfected with PradA-LUX reporter assessed as induction of radA reporter gene expression incubated for 12 days by bioluminescence analysis; format: functional, organism-based; conditions: time 12.0 day

Row | SMILES | MIC [1] | MIC [2] | IC50 at 24 h [3] | IC50 at 24 h [4] | MIC [5] | MIC [6] | MIC [7] | MIC [8] | Activity [9] | Activity [10]
1 | O=C(C1CCCN(c2nnc(-c3ccccc3)o2)C1)N1CCC(Cc2ccccc2)CC1 (stereo unspecified) | 50 µM (≈ 21.5 µg/mL) | 25 µM (≈ 10.8 µg/mL) | > 50 µM | 37.5 µM |  |  |  |  |  | 
2 | O=C(C1CCN(c2nnc(-c3ccccc3)s2)CC1)N1CCC(Cc2ccccc2)CC1 | 1.2 µM (≈ 0.536 µg/mL) | 0.3 µM (≈ 0.134 µg/mL) | > 50 µM | 37.5 µM |  |  |  |  |  | 
3 | O=C(C1CCN(c2nnc(-c3ccccc3)o2)CC1)N1CCCCC1 | > 50 µM | > 50 µM | > 50 µM | > 50 µM |  |  |  |  |  | 
4 | O=C(CC1CCN(c2nnc(-c3ccccc3)o2)CC1)N1CCC(Cc2ccccc2)CC1 | 12.5 µM (≈ 5.56 µg/mL) | 4.7 µM (≈ 2.09 µg/mL) | > 50 µM | 37.5 µM |  |  |  |  |  | 
5 | CCCCCC[C@H]1C(=O)O[C@H](C)[C@H](NC(=O)c2cccc(NC=O)c2O)C(=O)O[C@@H](C)[C@@H]1OC(=O)CC(C)C [ANTIMYCIN A] |  |  | > 250 µM | 0.12 µM |  |  |  |  |  | 
6 | O=C(c1ccccc1)C1CCN(C(=O)C2CCN(c3nnc(-c4ccccc4)o3)CC2)CC1 | 9.4 µM (≈ 4.18 µg/mL) | 4.7 µM (≈ 2.09 µg/mL) | > 50 µM | 37.5 µM |  |  |  |  |  | 
7 | O=C(C1CCN(c2nnc(-c3ccccc3)o2)CC1)N1CCC(Cc2ccc(C(F)(F)F)cc2)CC1 | 0.3 µM (≈ 0.15 µg/mL) | 0.1 µM (≈ 0.0499 µg/mL) | > 50 µM | 37.5 µM |  |  |  |  |  | 
8 | O=C(C1CCN(c2nnc(-c3ccccc3)o2)CC1)N1CCC(c2ccccc2)CC1 | 4.7 µM (≈ 1.96 µg/mL) | 2.3 µM (≈ 0.958 µg/mL) | > 50 µM | 37.5 µM |  |  |  |  |  | 
9 | CC(c1ccccc1)C1CCN(C(=O)C2CCN(c3nnc(-c4ccccc4)o3)CC2)CC1 (stereo unspecified) | 1.56 µM (≈ 0.694 µg/mL) | 0.2 µM (≈ 0.0889 µg/mL) | > 50 µM | > 50 µM |  |  |  |  |  | 
10 | CC(C)C1CCN(C(=O)C2CCN(c3nnc(-c4ccccc4)o3)CC2)CC1 | 4.7 µM (≈ 1.8 µg/mL) | 2.3 µM (≈ 0.88 µg/mL) | > 50 µM | > 50 µM |  |  |  |  |  | 
11 | O=C(C1CCN(c2nnc(-c3ccccc3)o2)CC1)N1CCCC(Cc2ccccc2)C1 (stereo unspecified) | 50 µM (≈ 21.5 µg/mL) | 25 µM (≈ 10.8 µg/mL) | > 50 µM | 37.5 µM |  |  |  |  |  | 
12 | O=C(C1CCN(c2nnc(-c3ccccc3)o2)CC1)N1CCC(CC2CCCCC2)CC1 | 0.2 µM (≈ 0.0873 µg/mL) | 0.05 µM (≈ 0.0218 µg/mL) | > 50 µM | > 50 µM |  |  |  |  |  | 
13 | CC(C)(C)C1CCN(C(=O)C2CCN(c3nnc(-c4ccccc4)o3)CC2)CC1 | 4.7 µM (≈ 1.86 µg/mL) | 1.2 µM (≈ 0.476 µg/mL) | > 50 µM | > 50 µM |  |  |  |  |  | 
14 | O=C(C1CCN(c2nnc(-c3ccccc3)o2)CC1)N1CCN(Cc2ccccc2)CC1 | 50 µM (≈ 21.6 µg/mL) | 25 µM (≈ 10.8 µg/mL) | > 50 µM | > 50 µM |  |  |  |  |  | 
15 | O=C(C1CCN(c2nnc(-c3ccccc3)o2)CC1)N1CCC(Cc2ccccc2)C1 (stereo unspecified) | 9.4 µM (≈ 3.92 µg/mL) | 6.25 µM (≈ 2.6 µg/mL) | > 50 µM | 37.5 µM |  |  |  |  |  | 
16 | CCN(CC)C(=O)C1CCN(c2nnc(-c3ccccc3)o2)CC1 | > 50 µM | > 50 µM | > 50 µM | > 50 µM |  |  |  |  |  | 

Row | SMILES | MIC [1] | MIC [2] | IC50 at 24 h [3] | IC50 at 24 h [4] | MIC [5] | MIC [6] | MIC [7] | MIC [8] | Activity [9] | Activity [10]
17 | CN1CCN(C(=O)C2CCN(c3nnc(-c4ccccc4)o3)CC2)CC1 | > 50 µM | > 50 µM | > 50 µM | > 50 µM |  |  |  |  |  | 
18 | O=S(=O)(C1CCN(c2nnc(-c3ccccc3)o2)CC1)N1CCC(Cc2ccccc2)CC1 | > 50 µM | 12.5 µM (≈ 5.83 µg/mL) | > 50 µM | 37.5 µM |  |  |  |  |  | 
19 | O=C(C1CCN(c2nnc(-c3ccncc3)o2)CC1)N1CCC(Cc2ccccc2)CC1 | 1.2 µM (≈ 0.518 µg/mL) | 0.39 µM (≈ 0.168 µg/mL) | > 50 µM | 37.5 µM |  |  |  |  |  | 
20 | O=C(NC1CCC(Cc2ccccc2)CC1)C1CCN(c2nnc(-c3ccccc3)o2)CC1 (stereo unspecified) | > 50 µM | 4.7 µM (≈ 2.09 µg/mL) | > 50 µM | > 50 µM |  |  |  |  |  | 
21 | O=C(C1CCN(c2nnc(-c3ccc(F)cc3)o2)CC1)N1CCC(Cc2ccccc2)CC1 | 1.2 µM (≈ 0.538 µg/mL) | 0.15 µM (≈ 0.0673 µg/mL) | > 50 µM | > 50 µM |  |  |  |  |  | 
22 | O=C(C1CCN(c2nnc(-c3ccccc3)o2)CC1)N1CCC(C(F)(F)F)CC1 | 1.56 µM (≈ 0.637 µg/mL) | 0.2 µM (≈ 0.0817 µg/mL) | > 50 µM | > 50 µM |  |  |  |  |  | 
23 | NNC(=O)c1ccncc1 [ISONIAZID] | 0.16 µM (≈ 0.0219 µg/mL) | 0.1 µM (≈ 0.0137 µg/mL) |  |  | 0.39 µM (≈ 0.0535 µg/mL) | 0.39 µM (≈ 0.0535 µg/mL) | 0.2 µM (≈ 0.0274 µg/mL) | 0.2 µM (≈ 0.0274 µg/mL) | inactive | inactive
24 | O=C(C1CCN(c2nnc(-c3ccccc3)o2)C1)N1CCC(Cc2ccccc2)CC1 (stereo unspecified) | 50 µM (≈ 20.8 µg/mL) | 6.3 µM (≈ 2.62 µg/mL) | > 50 µM | > 50 µM |  |  |  |  |  | 
25 | O=C(NCc1ccccc1)C1CCN(c2nnc(-c3ccccc3)o2)CC1 | > 50 µM | 25 µM (≈ 9.06 µg/mL) | > 50 µM | > 50 µM |  |  |  |  |  | 
26 | O=C(C1CCN(c2nnc(-c3ccccc3)o2)CC1)N1CCc2ccccc2C1 | 50 µM (≈ 19.4 µg/mL) | 37 µM (≈ 14.4 µg/mL) | > 50 µM | > 50 µM |  |  |  |  |  | 
27 | O=C(C1CCN(c2noc(-c3ccccc3)n2)CC1)N1CCC(Cc2ccccc2)CC1 | 1.2 µM (≈ 0.517 µg/mL) | 0.3 µM (≈ 0.129 µg/mL) | > 50 µM | 37.5 µM |  |  |  |  |  | 
28 | Cc1nnc(N2CCC(C(=O)N3CCC(Cc4ccccc4)CC3)CC2)o1 | > 50 µM | > 50 µM | > 50 µM | > 50 µM |  |  |  |  |  | 
29 | O=C(C1CCN(c2nnc(-c3ccc(C(F)(F)F)cc3)o2)CC1)N1CCC(Cc2ccccc2)CC1 | > 50 µM | > 50 µM | > 50 µM | > 50 µM |  |  |  |  |  | 
30 | O=C(C1CCN(c2nnc(-c3ccccc3)o2)CC1)N1CCC(=Cc2ccccc2)CC1 | 2.3 µM (≈ 0.986 µg/mL) | 0.3 µM (≈ 0.129 µg/mL) | > 50 µM | 37.5 µM |  |  |  |  |  | 
31 | O=C(C1CCN(c2nnc(-c3ccccc3)o2)CC1)N1CCC(Oc2ccccc2)CC1 | 4.7 µM (≈ 2.03 µg/mL) | 2.3 µM (≈ 0.995 µg/mL) | 37.5 µM | 37.5 µM |  |  |  |  |  | 
